Results as given in patent publication US11802120B2, “Fused cyclic urea derivatives as CRHR2 antagonist” (RaQualia Pharma Inc., priority 2018, dated 2023).

Biological target: T1, human CRHR2-alpha (Homo sapiens, UniProt Q13324)
T1 sequence (Q13324 1-411): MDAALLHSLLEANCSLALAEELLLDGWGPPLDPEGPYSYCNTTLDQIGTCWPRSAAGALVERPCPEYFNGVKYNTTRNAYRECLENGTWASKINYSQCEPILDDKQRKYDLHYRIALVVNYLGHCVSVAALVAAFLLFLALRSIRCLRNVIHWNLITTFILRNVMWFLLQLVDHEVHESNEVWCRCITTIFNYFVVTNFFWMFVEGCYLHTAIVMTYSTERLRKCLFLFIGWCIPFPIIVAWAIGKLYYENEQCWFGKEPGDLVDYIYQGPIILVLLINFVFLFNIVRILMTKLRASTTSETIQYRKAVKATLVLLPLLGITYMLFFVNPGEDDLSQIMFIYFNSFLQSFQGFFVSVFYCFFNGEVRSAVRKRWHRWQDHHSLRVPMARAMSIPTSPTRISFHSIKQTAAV
Experiment: cAMP functional assay for human CRHR2 (LANCE Ultra cAMP, TR-FRET)
Type: cell-based
Settings: CHO-K1 cells expressing human CRHR2-alpha, agonist human urocortin2 at EC80, cAMP; read-out: IC50 against CRHR2
In short: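 CHO-K1 cells stably expressing each receptor, serum-starved and cryopreserved, were preincubated with compound 30 min at 25° C in HBSS buffer with 0.5 mM IBMX, pH 7.4, then stimulated 30 min with EC80 agonist (urocortin2 for CRHR2, CRF for CRHR1). cAMP read by TR-FRET; IC50 from percent-inhibition curves.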

IC50, < 300 nM:
O=C(N[C@H]1CC[C@H](Cn2c(=O)n(-c3ccc(-c4ncc[nH]4)cc3)c3ccccc32)CC1)c1cc(Cl)cnc1C(F)F [Example 743, N-((1r,4r)-4-((3-(4-(1H-imidazol-2-yl)phenyl)-2-oxo-2,3-dihydro-1H-benzo[d]imidazol-1-yl)methyl)cyclohexyl)-5-chloro-2-(difluoromethyl)nicotinamide]
Cc1ncc(Cl)cc1C(=O)N[C@H]1CC[C@H](Cn2c(=O)n(-c3ccc(OCCCO)nc3)c3ccccc32)CC1 [Example 134, 5-chloro-N-((1r,4r)-4-((3-(6-(3-hydroxypropoxy)pyridin-3-yl)-2-oxo-2,3-dihydro-1H-benzo[d]imidazol-1-yl)methyl)cyclohexyl)-2-methylnicotinamide]
COc1ccc(C(=O)Cn2c(=O)n(C[C@H]3CC[C@H](NC(=O)c4cc(Cl)cnc4C)CC3)c3ccccc32)cc1 [Example 9, 5-chloro-N-((1r,4r)-4-((3-(2-(4-methoxyphenyl)-2-oxoethyl)-2-oxo-2,3-dihydro-1H-benzo[d]imidazol-1-yl)methy)cyclohexyl)-2-methylnicotinamide]
Cc1ncc(Cl)cc1C(=O)N[C@H]1CC[C@H](Cn2c(=O)n(-c3ccc4ocnc4c3)c3ccccc32)CC1 [Example 264, N-((1r,4r)-4-((3-(benzo[d]oxazol-5-yl)-2-oxo-2,3-dihydro-1H-benzo[d]imidazol-1-yl)methyl)cyclo-hexyl)-5-chloro-2-methyl-nicotinamide]
O=C(N[C@H]1CC[C@H](Cn2c(=O)n(-c3ccc4ncccc4c3)c3ccccc32)CC1)c1cc(Cl)cnc1C(F)(F)F [Example 351, 5-chloro-N-((1r,4r)-4-((2-oxo-3-(quinolin-6-yl)-2,3-dihydro-1H-benzo[d]imidazol-1-yl)methyl)cyclo-hexyl)-2-(trifluoromethyl) nicotinamide]
CN1CCN(c2ccc(-n3c(=O)n(C[C@H]4CC[C@H](NC(=O)c5cc(Cl)cnc5C(F)F)CC4)c4ccccc43)cn2)C1=O [Example 524, 5-chloro-2-(difluoromethyl)-N-((1r,4r)-4-((3-(6-(3-methyl-2-oxoimidazolidin-1-yl)pyridin-3-yl)-2-oxo-2,3-dihydro-1H-benzo[d]imidazol-1-yl)methyl)cyclohexyl) nicotinamide]
Cc1ncc(Cl)cc1C(=O)N[C@H]1CC[C@H](Cn2c(=O)n(-c3ccc4c(c3)nnn4CCO)c3ccccc32)CC1 [Example 276, 5-chloro-N-((1r,4r)-4-((3-(1-(2-hydroxyethyl)-1H-benzo[d][1,2,3]triazol-5-yl)-2-oxo-2,3-dihydro-1H-benzo[d]imidazol-1-yl)methyl)cyclohexyl)-2-methylnicotinamide]
Cc1ncc(Cl)cc1C(=O)N[C@H]1CC[C@H](Cn2c(=O)n(-c3ccc4c(c3)ncn4C)c3ccccc32)CC1 [Example 206, 5-chloro-2-methyl-N-((1r,4r)-4-((1′-methyl-2-oxo-1′H-[1,5′-bibenzo[d]imidazol]-3(2H)-yl)methyl)cyclohexyl)nico-tinamide]
O=C(Cn1c(=O)n(C[C@H]2CC[C@H](NC(=O)c3cc(Cl)cnc3C(F)(F)F)CC2)c2ccccc21)c1ccccc1 [Example 285, 5-chloro-N-((1r,4r)-4-((2-oxo-3-(2-oxo-2-phenylethyl)-2,3-dihydro-1H-benzo[d]imidazol-1-yl)methyl)cyclohexyl)-2-(trifluoromethyl)nicotinamide]
O=C(N[C@H]1CC[C@H](Cn2c(=O)n(Cc3ccccn3)c3ccccc32)CC1)c1cc(Cl)ccc1C(F)(F)F [Example 283, 5-chloro-N-((1r,4r)-4-((2-oxo-3-(pyridin-2-ylmethyl)-2,3-dihydro-1H-benzo[d]imidazol-1-yl)methyl)cyclohexyl)-2-(trifluoromethyl)benzamide]
COc1ccc(-n2c(=O)n(C[C@H]3CC[C@H](NC(=O)c4cc(Cl)cnc4C)CC3)c3cccc(C)c32)cn1 [Example 58, 5-chloro-N-((1r,4r)-4-((3-(6-methoxypyridin-3-yl)-4-methyl-2-oxo-2,3-dihydro-1H-benzo[d]imidazol-1-yl)methyl)cyclohexyl)-2-methylnicotinamide]
CCn1nc2ccccc2c1C(=O)N[C@H]1CC[C@H](Cn2c(=O)n(-c3ccc(C(C)O)cc3)c3ccccc32)CC1 (some centres unmarked) [Example 42, 2-ethyl-N-((1r,4r)-4-((3-(4-(1-hydroxyethyl)phenyl)-2-oxo-2,3-dihydro-1H-benzo[d]imidazol-1-yl)methyl)cyclohexyl)-2H-indazole-3-carboxamide]
Cc1ncc(Cl)cc1C(=O)N[C@H]1CC[C@H](Cn2c(=O)n(-c3cnc(OCCO)c(F)c3)c3ccccc32)CC1 [Example 553, 5-chloro-N-((1r,4r)-4-((3-(5-fluoro-6-(2-hydroxyethoxy)pyridin-3-yl)-2-oxo-2,3-dihydro-1H-benzo[d]imidazol-1-yl)methyl)cyclohexyl)-2-methylnicotinamide]
Cn1ccc(-c2ccc(-n3c(=O)n(C[C@H]4CC[C@H](NC(=O)c5cc(Cl)cnc5C(F)F)CC4)c4ccccc43)cn2)n1 [Example 737, 5-chloro-2-(difluoromethyl)-N-((1r,4r)-4-((3-(6-(1-methyl-1H-pyrazol-3-yl)pyridin-3-yl)-2-oxo-2,3-dihydro-1H-benzo[d]imidazol-1-yl)methyl)cyclohexyl)nicotinamide]
Cc1ncc(Cl)cc1C(=O)N[C@H]1CC[C@H](Cn2c(=O)n(-c3ccc4ncoc4c3)c3ccccc32)CC1 [Example 153, N-((1r,4r)-4-((3-(benzo[d]oxazol-6-yl)-2-oxo-2,3-dihydro-1H-benzo[d]imidazol-1-yl)methyl)cyclo-hexyl)-5-chloro-2-methylnicotinamide]
CC(=O)Nc1ccc(-n2c(=O)n(C[C@H]3CC[C@H](NC(=O)c4cc(Cl)cnc4C(F)F)CC3)c3ccccc32)cn1 [Example 508, N-((1r,4r)-4-((3-(6-aceta-midopyridin-3-yl)-2-oxo-2,3-dihydro-1H-benzo[d]imidazol-1-yl)methyl)cyclo-hexyl)-5-chloro-2-(difluoro-methyl)nicotinamide]
CNC(=O)c1ccc(-n2c(=O)n(C[C@H]3CC[C@H](NC(=O)c4cc(Cl)cnc4C(F)F)CC3)c3cccc(C)c32)cn1 [Example 527, 5-(3-(((1r,4r)-4-(5-chloro-2-(difluoromethyl)nicotinamido)cyclohexyl)methyl)-7-methyl-2-oxo-2,3-dihydro-1H-benzo [d]imidazol-1-yl)-N-methylpicolinamide]
Cc1ncc(Cl)cc1C(=O)N[C@H]1CC[C@H](Cn2c(=O)n(-c3ccc(-c4cocn4)cc3)c3ccccc32)CC1 [Example 635, 5-chloro-2-methyl-N-((1r,4r)-4-((3-(4-(oxazol-4-yl)phenyl)-2-oxo-2,3-dihydro-1H-benzo [d]imidazol-1-yl)methyl)cyclo-hexyl)nicotinamide]
Cc1ncc(Cl)cc1C(=O)N[C@H]1CC[C@H](Cn2c(=O)n(-c3ccc4oc(N)nc4c3)c3ccccc32)CC1 [Example 263, N-((1r,4r)-4-((3-(2-aminobenzo[d]oxazol-5-yl)-2-oxo-2,3-dihydro-1H-benzo[d]imidazol-1-yl)methyl)cyclohexyl)-5-chloro-2-methylnicotinamide]
CNc1ncc(-n2c(=O)n(C[C@H]3CC[C@H](NC(=O)c4cc(Cl)cnc4C(F)F)CC3)c3ccccc32)cc1C [Example 462, 5-chloro-2-(difluoromethyl)-N-((1r,4r)-4-((3-(5-methyl-6-(methylamino)pyridin-3-yl)-2-oxo-2,3-dihydro-1H-benzo [d]imidazol-1-yl)methyl)cyclo-hexyl)nicotinamide]
Cc1ncc(Cl)cc1C(=O)N[C@H]1CC[C@H](Cn2c(=O)n(-c3cccc(-n4ccnc4)n3)c3ccccc32)CC1 [Example 520, N-((1r,4r)-4-((3-(6-(1H-imidazol-1-yl)pyridin-2-yl)-2-oxo-2,3-dihydro-1H-benzo[d]imidazol-1-yl)methyl)cyclo-hexyl)-5-chloro-2-methyl-nicotinamide]
Cc1ncc(Cl)cc1C(=O)N[C@H]1CC[C@H](Cn2c(=O)n(-c3ccc(NC4CCC4)nc3)c3ccccc32)CC1 [Example 125, 5-chloro-N-((1r,4r)-4-((3-(6-(cyclobutylamino)pyridin-3-yl)-2-oxo-2,3-dihydro-1H-benzo[d]imidazol-1-yl)methyl)cyclo-hexyl)-2-methylnicotinamide]
Cc1ncc(Cl)cc1C(=O)N[C@H]1CC[C@H](Cn2c(=O)n(-c3ccc4c(C)noc4c3)c3ccccc32)CC1 [Example 171, 5-chloro-2-methyl-N-((1r,4r)-4-((3-(3-methylbenzo[d]isoxazol-6-yl)-2-oxo-2,3-dihydro-1H-benzo[d]imidazol-1-yl)methyl)cyclo-hexyl)nicotinamide]
